Key:
Format in all cases: cell-based
SW480 (colon cancer) = experiment: Antiproliferative activity (CCK-8 cell viability), SW480; conditions: Homo sapiens, 72 h; for inhibition at 3.3 µM: Compound concentration: 3.3 μM; for inhibition at 3.3 µM / inhibition at 10 µM: read-out: Antiproliferative activity in cancerous cells, SW480 (inhibition of cell growth); for inhibition at 10 µM: Compound concentration: 10 μM
Summary of the method: (§1)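 Growth inhibition graded in bands from percent viability against DMSO vehicle, read as CCK-8 absorbance at 450 nm. Compound tested at 3.3, 10 or 30 μM for 72 h, 37 °C; media contained 10% FBS: DMEM for HepG2/SW480, MEM for HeLa, F-12K for A549.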

HeLa (cervical cancer) = experiment: Antiproliferative activity (CCK-8 cell viability), HeLa; conditions: Homo sapiens, 72 h, read-out: Antiproliferative activity in cancerous cells, HELA (inhibition of cell growth); for inhibition at 3.3 µM: Compound concentration: 3.3 μM; for inhibition at 10 µM: Compound concentration: 10 μM
Summary of the method: as §1

[1] = test system: B16F10 (malignant melanoma); experiment: Antiproliferative activity (CCK-8 cell viability), B16F10; conditions: Mus musculus, 72 h; for inhibition at 3.3 µM: B16-F10, Compound concentration: 3.3 μM; for inhibition at 3.3 µM / inhibition at 10 µM: read-out: Antiproliferative activity in cancerous cells, B16F10 (inhibition of cell growth); for inhibition at 10 µM: B16-F10, Compound concentration: 10 μM
Summary of the method: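 Cell growth inhibition was measured in B16F10 malignant melanoma cells with a Cell Counting Kit-8 viability assay. Cells were maintained in DMEM plus 10% fetal bovine serum, seeded at 2,000-5,000 cells/well in 96-well plates, and treated for 72 h at 37° C. Viability was expressed relative to DMSO-treated vehicle control wells.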

[2] = test system: MDA-MB-231 (breast cancer); experiment: Antiproliferative activity (CCK-8 cell viability), MDA-MB-231; conditions: Homo sapiens, 72 h, read-out: Antiproliferative activity in cancerous cells, MDA-MB-231 (inhibition of cell growth); for inhibition at 3.3 µM: Compound concentration: 3.3 μM; for inhibition at 10 µM: Compound concentration: 10 μM
Summary of the method: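 Growth inhibition of human MDA-MB-231 breast cancer cells was assessed with a Cell Counting Kit-8. Cells cultured in DMEM plus 10% FBS were seeded at 2,000-5,000 cells/well, treated after attachment, and kept 72 h at 37° C. CCK-8 solution (10 μL) was added for 4 h, and absorbance at 450 nm was compared with DMSO-treated controls.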

[3] = test system: A431 (epidermoid carcinoma); experiment: Antiproliferative activity (CCK-8 cell viability), A431; conditions: Homo sapiens, 72 h; for inhibition at 3.3 µM: A-431, Compound concentration: 3.3 μM; for inhibition at 3.3 µM / inhibition at 10 µM: read-out: Antiproliferative activity in cancerous cells, A431 (inhibition of cell growth); for inhibition at 10 µM: A-431, Compound concentration: 10 μM
Summary of the method: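 This growth inhibition assay used A431 cells maintained in Dulbecco's modified Eagle's medium plus 10% fetal bovine serum. Cells were seeded in 96-well plates, treated with compound for 72 h at 37° C., and then given 10 μL CCK-8 solution. After a further 4 h, absorbance was read at 450 nm.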

HepG2 (liver cancer) = experiment: Antiproliferative activity (CCK-8 cell viability), HepG2; conditions: Homo sapiens, 72 h; for inhibition at 3.3 µM: Compound concentration: 3.3 μM; for inhibition at 3.3 µM / inhibition at 10 µM: read-out: Antiproliferative activity in cancerous cells, HepG2 (inhibition of cell growth); for inhibition at 10 µM: Compound concentration: 10 μM
Summary of the method: as §1

[4] = test system: alpha-smooth muscle actin (α-SMA); experiment: Inhibition of TGF-β induced expression of alpha-smooth muscle actin (α-SMA) in CFSC cells (western blot); conditions: compound at 10 μM, TGF-β (10 ng/mL), 24 hours, band intensity vs TGF-β only
Summary of the method: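 Values are percent reduction of α-SMA band intensity relative to cells given TGF-β alone, quantified by Western blot densitometry with β-actin probed. Compound was applied at 10 μM alongside 10 ng/mL TGF-β to serum-free CFSC cultures for 24 h at 37 °C.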

[5] = test system: A549 (lung adenocarcinoma); experiment: Antiproliferative activity (CCK-8 cell viability), A549; conditions: Homo sapiens, 72 h; for inhibition at 3.3 µM: Compound concentration: 3.3 μM; for inhibition at 3.3 µM / inhibition at 10 µM: read-out: Antiproliferative activity in cancerous cells, A549 (inhibition of cell growth); for inhibition at 10 µM: Compound concentration: 10 μM
Summary of the method: as §1

Row | Compound | inhibition at 3.3 µM (SW480 (colon cancer)) [%] | inhibition at 10 µM (SW480 (colon cancer)) [%] | inhibition at 3.3 µM (HeLa (cervical cancer)) [%] | inhibition at 10 µM (HeLa (cervical cancer)) [%] | inhibition at 3.3 µM [1] [%] | inhibition at 10 µM [1] [%] | inhibition at 3.3 µM [2] [%] | inhibition at 10 µM [2] [%] | inhibition at 3.3 µM [3] [%] | inhibition at 10 µM [3] [%] | inhibition at 3.3 µM (HepG2 (liver cancer)) [%] | inhibition at 10 µM (HepG2 (liver cancer)) [%] | inhibition at 10 µM [4] [%] | inhibition at 3.3 µM [5] [%] | inhibition at 10 µM [5] [%] | inhibition at 30 µM (SW480 (colon cancer); Compound concentration: 30 μM, read-out: Antiproliferative activity in cancerous cells, SW480) [%] | inhibition at 30 µM ([1]; B16-F10, Compound concentration: 30 μM, read-out: Antiproliferative activity in cancerous cells, B16F10) [%] | inhibition at 30 µM ([3]; A-431, Compound concentration: 30 μM, read-out: Antiproliferative activity in cancerous cells, A431) [%] | inhibition at 30 µM (HepG2 (liver cancer); Compound concentration: 30 μM, read-out: Antiproliferative activity in cancerous cells, HepG2) [%] | inhibition at 30 µM ([5]; Compound concentration: 30 μM, read-out: Antiproliferative activity in cancerous cells, A549) [%]
1 | O=C(O)CC1=C(Cc2ccc(F)cc2)/C(=C/c2ccc(Oc3ccc(F)cc3)cc2)c2ccc(F)cc21 [C14, (Z)-2-(5-Fluoro-2-(4-fluorobenzyl)-1-(4-(4-fluorophenoxy)benzylidene)-1H-inden-3-yl)acetic acid] | < 30 | ≥ 50 | ≥ 50 | ≥ 50 | ≥ 50 | ≥ 50 | ≥ 50 | ≥ 50 | ≥ 50 | ≥ 50 | ≥ 50 | ≥ 50 | > 80 | < 30 | ≥ 50 |  |  |  |  | 
2 | O=C(O)CC1=C/C(=C/c2cccc(Oc3ccccc3)c2)c2cc(OCC(F)(F)F)ccc21 [C15, (Z)-2-(1-(3-Phenoxybenzylidene)-6-(2,2,2-trifluoroethoxy)-1H-inden-3-yl)acetic acid] | < 30 | < 30 | < 30 | 30 to 50 | < 30 | < 30 | 30 to 50 | ≥ 50 | < 30 | < 30 | < 30 | < 30 | < 30 | < 30 | < 30 | < 30 | 30 to 50 | < 30 | 30 to 50 | < 30
3 | CC1=C(CC(=O)O)c2ccc(F)cc2/C1=C\c1cccc(Oc2ccccc2)c1 [C16, (Z)-2-(6-Fluoro-2-methyl-1-(3-phenoxybenzylidene)-1H-inden-3-yl)acetic acid] | < 30 | < 30 | < 30 | < 30 | < 30 | ≥ 50 | ≥ 50 | 30 to 50 | ≥ 50 | ≥ 50 | ≥ 50 | ≥ 50 | > 80 | < 30 | 30 to 50 |  |  |  |  | 
4 | CC1=C(CC(=O)O)c2cc(C)ccc2/C1=C\c1cccc(Oc2ccccc2)c1 [C17, (Z)-2-(2,5-Dimethyl-1-(3-phenoxybenzylidene)-1H-inden-3-yl)acetic acid] | < 30 | < 30 | < 30 | 30 to 50 | < 30 | < 30 | 30 to 50 | ≥ 50 | 30 to 50 | ≥ 50 | 30 to 50 | ≥ 50 | > 80 | < 30 | ≥ 50 |  |  |  |  | 
5 | CCc1ccc2c(c1)C(CC(=O)O)=C(C)/C2=C/c1cccc(Oc2ccccc2)c1 [C18, (Z)-2-(5-Ethyl-2-methyl-1-(3-phenoxybenzylidene)-1H-inden-3-yl)acetic acid] | ≥ 50 | ≥ 50 | < 30 | 30 to 50 | ≥ 50 | ≥ 50 | 30 to 50 | ≥ 50 | ≥ 50 | ≥ 50 | 30 to 50 | ≥ 50 | < 30 | 30 to 50 | ≥ 50 |  |  |  |  | 

Reference: US20260184663A1, “INDENE COMPOUNDS, PHARMACEUTICAL COMPOSITIONS THEREOF, AND THEIR THERAPEUTIC APPLICATIONS” (NucMito Pharmaceuticals co. Ltd., priority 2022, published 2026)
